Tests used:
[1] = test system: Cercospora sojina (CERCSO); test: Use example 7: microtest, growth of Cercospora sojina (CERCSO); assay type: cell-based; conditions: relative growth vs compound-free control (100%); for Growth (%) CERCSO Use Ex. 7 / Growth (%) CERCSO Use ex. 7: 7 days; for Growth (%) CERCSO Use ex. 7: Table 12; for Growth at 8 ppm (%) CERCSO Use ex. 7: 7 days after inoculation
Description: (§1) The active compounds were formulated separately as a stock solution having a concentration of 10000 ppm in dimethyl sulfoxide. The stock solutions were mixed according to the ratio, pipetted onto a micro titer plate (MTP) and diluted with water to the stated concentrations. A spore suspension of one of the following fungal plant pathogens in aqueous bio malt solution • was then added for the respective use example: • Use example 5: Alternaria solani (ALTESO) • Use example 6: Botrytis cinerea (BOTRCI) • Use example 7: Cercospora sojina (CERCSO) • Use example 8: Colletotrichum orbiculare (COLLLA) • Use example 9: Leptosphaeria nodorum (LEPTNO) • Use example 10: Drechslera teres (PYRNTE) containing the amino acid substitution F129L in the mitochondrial cytochrome b protein conferring resistance to Qo inhibitors • Use example 11: Sclerotinia sclerotiorum (SCLESC), solute with ultrasonic from a filter membrane
(§2) The plates were placed in a water vapor-saturated chamber at a temperature of 18° C. Using an absorption photometer, the MTPs were measured at 405 nm 7 days after the inoculation.
(§3) The measured parameters were compared to the growth of the active compound-free control variant (100%) and the fungus-free blank value to determine the relative growth in % of the pathogens in the respective active compounds.

[2] = test system: Botrytis cinerea (BOTRCI); test: Use example 6: microtest, growth of Botrytis cinerea (BOTRCI); assay type: cell-based; conditions: relative growth vs compound-free control (100%); for Growth (%) BOTRCI Use Ex. 6: 0.5 ppm, 7 days; for Growth at 8 ppm (%) BOTRCI Use Ex. 6: 7 days after inoculation
Description: as §1, §2, §3

[3] = test system: Drechslera teres (PYRNTE) containing the amino acid substitution F129L in the mitochondrial cytochrome b protein; test: Use example 10: microtest, growth of Drechslera teres (PYRNTE) F129L; assay type: cell-based; conditions: relative growth vs compound-free control (100%), 7 days; for Growth (%) PYRNTE F129L Use Ex. 10 / Growth (%) PYRNTE F129L Use ex. 10: 125 ppm; for Growth (%) PYRNTE F129L Use Ex. 10: Table 7
Description: as §1, §2, §3

[4] = test system: Phakopsora pachyrhizi containing the amino acid substitution F129L in the mitochondrial cytochrome b protein; test: Use Example 1: protective control of soybean rust on soybeans (PHAKPA P2); assay type: in vivo; conditions: inoculated 2 days after spraying, % diseased leaf area
Procedure, shortened: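 Soybean seedling leaves sprayed to run-off with compound in acetone/DMSO–Wettol–water at the stated concentration, kept 2 days at 23-27° C, then inoculated with Qo-inhibitor-resistant F129L P. pachyrhizi. After 24 h at ~95% RH, 20-24° C, and up to 14 days in greenhouse, % diseased leaf area scored visually.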

Puccinia recondita [5] = test: Use Example 4: preventative control of brown rust on wheat (PUCCRT P7); assay type: in vivo; conditions: inoculated seven days after spraying, % diseased leaf area
Procedure, shortened: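 First two leaves of potted wheat seedlings sprayed to run-off with compound in acetone/DMSO–emulsifier–water, then inoculated with Puccinia recondita spores seven days later. Plants held 24 h dark at 95–99% RH and 20–24 °C, then 9–11 days in greenhouse; diseased leaf area (%) scored visually.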

[6] = test system: Phakopsora pachyrhizi containing the amino acid substitution F129L in the mitochondrial cytochrome b protein; test: Use Example 2: protective control of soybean rust on soybeans (PHAKPA P6); assay type: in vivo; conditions: inoculated six days after spraying, % diseased leaf area
Procedure, shortened: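 Compound in acetone and/or DMSO with Wettol (99:1), diluted with water, was sprayed to run-off on potted soybean seedlings. After six days at 23–27°C and 60–80% RH, plants were inoculated with a Qo-resistant F129L strain and held 24 h at about 95% RH. Percent diseased leaf area was scored visually after up to 14 days.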

[7] = test system: Colletotrichum orbiculare (COLLLA); test: Use example 8: microtest, growth of Colletotrichum orbiculare (COLLLA); assay type: cell-based; conditions: relative growth vs compound-free control (100%); for Growth (%) COLLLA Use Ex. 8: 125 ppm; for Growth (%) COLLLA Use Ex. 8 / Growth (%) COLLLA Use ex. 8: 7 days; for Growth (%) COLLLA Use ex. 8: 8 ppm; for Growth at 2 ppm (%) COLLLA Use ex. 8: 7 days after inoculation
Description: as §1, §2, §3

[8] = test system: Leptosphaeria nodorum (LEPTNO); test: Use example 9: microtest, growth of Leptosphaeria nodorum (LEPTNO); assay type: cell-based; conditions: relative growth vs compound-free control (100%), 7 days; for Growth (%) LEPTNO Use Ex. 9: 125 ppm, Table 9; for Growth at 125 ppm (%) LEPTNO Use ex. 9: Table 10
Description: as §1, §2, §3

Puccinia recondita [9] = test: Use Example 3: curative control of brown rust on wheat (PUCCRT K4); assay type: in vivo; conditions: % diseased leaf area
Procedure, shortened: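 Wheat seedlings inoculated with Puccinia recondita spores, held 24 h at 95–99% RH, 20–24° C in dark, then 3 days in greenhouse before spraying to run-off (curative). Compound in acetone/DMSO–Wettol–water. After 5–7 further days at 20–24° C, 65–70% RH, % diseased leaf area scored visually.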

Row | Structure (SMILES) | % PHAKPA (F129L) Disease level P2 at 4 ppm [4] [%] | % PHAKPA (F129L) Disease level P2 at 16 ppm [4] [%] | % PUCCRT Disease level P7 at 4 ppm (Puccinia recondita [5]) [%] | % PUCCRT Disease level P7 at 16 ppm (Puccinia recondita [5]) [%] | % PHAKPA (F129L) Disease level P6 at 4 ppm [6] [%] | % PHAKPA (F129L) Disease level P6 at 16 ppm [6] [%] | % PUCCRT Disease level K4 at 4 ppm (Puccinia recondita [9]) [%] | % PUCCRT Disease level K4 at 16 ppm (Puccinia recondita [9]) [%] | also measured
1 | COC/C(=N\OCc1c(C)cccc1/C(=N\OC)C(=O)OC)c1ccc(Cl)cc1 [I.1-A-83, reference compound] |  |  |  |  |  |  |  |  | Growth (%) CERCSO Use Ex. 7 ([1]; 31 ppm): 83%; Growth (%) BOTRCI Use Ex. 6 [2]: 53%; Growth (%) PYRNTE F129L Use Ex. 10 [3]: 23%
2 | CO/C=C(/C(=O)OC)c1cccc(Br)c1CO/N=C(\COC)c1c(F)cc(F)cc1F [compound 58] | 2 | 0 | 57 | 30 | 0 | 0 | 27 | 15 | Growth (%) CERCSO Use Ex. 7 ([1]; 125 ppm, Table 9): 63%; Growth (%) COLLLA Use Ex. 8 [7]: 26%; Growth (%) LEPTNO Use Ex. 9 [8]: 47%
3 | CNC(=O)/C(=N/OC)c1cccc(C)c1CO/N=C(\COC)c1ccc(Cl)cc1 [I.3-A-83, reference compound] |  |  |  |  |  |  |  |  | Growth (%) CERCSO Use ex. 7 ([1]; 125 ppm): 89%; Growth (%) PYRNTE F129L Use ex. 10 ([3]; Table 12): 26%
4 | CO/C=C(/C(=O)OC)c1cccc(Br)c1CO/N=C(\COC)c1ccc(F)cc1 [compound 10, Methyl-(E)-2-[3-bromo-2-[[(Z)-[1-(4-fluorophenyl)-2-methoxy-ethylidene]amino]oxymethyl]phenyl]-3-methoxy-prop-2-enoate] | 4 | 0 | 10 | 2 | 8 | 0 | 13 | 2 | Growth at 125 ppm (%) LEPTNO Use ex. 9 [8]: 3%
5 | CNC(=O)/C(=N/OC)c1cccc(Cl)c1CO/N=C(\COC)c1ccc(Cl)cc1 [compound 36] | 65 | 3 | 6 | 0 | 57 | 10 | 82 | 2 | Growth (%) CERCSO Use ex. 7 ([1]; 125 ppm): 12%; Growth (%) PYRNTE F129L Use ex. 10 ([3]; Table 12): 2%
6 | CNC(=O)/C(=N/OC)c1cccc(Cl)c1CO/N=C(\COC)c1c(F)cc(F)cc1F [compound 31] | 0 | 0 | 17 | 4 | 3 | 0 | 40 | 7 | Growth (%) COLLLA Use ex. 8 [7]: 34%; Growth (%) PYRNTE F129L Use ex. 10 ([3]; Table 13): 21%
7 | CNC(=O)/C(=N/OC)c1cccc(C)c1CO/N=C(\COC)c1cccc(C(F)(F)F)c1 [reference compound] |  |  |  |  |  |  |  |  | Growth at 8 ppm (%) CERCSO Use ex. 7 [1]: 28%; Growth at 8 ppm (%) BOTRCI Use Ex. 6 [2]: 78%
8 | CNC(=O)/C(=N/OC)c1cccc(Cl)c1CO/N=C(\COC)c1cccc(C(F)(F)F)c1 [compound 56] | 15 | 0 | 2 | 2 | 23 | 0 | 8 | 0 | Growth at 8 ppm (%) CERCSO Use ex. 7 [1]: 13%; Growth at 8 ppm (%) BOTRCI Use Ex. 6 [2]: 64%
9 | CO/C=C(/C(=O)OC)c1cccc(Cl)c1CO/N=C(\COC)c1cccc(F)c1 [compound 14, Methyl-(E)-2-[3-chloro-2-[[(Z)-[1-(3-fluorophenyl)-2-methoxy-ethylidene]amino]oxymethyl]phenyl]-3-methoxy-prop-2-enoate] | 3 | 0 | 13 | 2 | 2 | 0 | 22 | 1 | Growth at 8 ppm (%) PYRNTE F129L Use ex. 10 [3]: 3%
10 | CNC(=O)/C(=N/OC)c1cccc(Cl)c1CO/N=C(\COC)c1ccccc1 [compound 4, (2E)-2-[3-chloro-2-[[(Z)-(2-methoxy-1-phenyl-ethylidene)amino]oxymethyl]phenyl]-2-methoxyimino-N-methyl-acetamide] |  |  | 17 | 4 |  |  | 77 | 9 | Growth at 2 ppm (%) COLLLA Use ex. 8 [7]: 29%
11 | COC/C(=N\OCc1c(Cl)cccc1/C(=N\OC)C(=O)OC)c1ccc(Cl)cc1 [compound 34] | 68 | 22 | 48 | 9 | 80 | 25 | 75 | 70 | Growth (%) CERCSO Use Ex. 7 ([1]; 31 ppm): 56%; Growth (%) BOTRCI Use Ex. 6 [2]: 35%; Growth (%) PYRNTE F129L Use Ex. 10 [3]: 4%
12 | CO/C=C(/C(=O)OC)c1cccc(C)c1CO/N=C(\COC)c1c(F)cc(F)cc1F [I.2-A-43860, reference compound] |  |  |  |  |  |  |  |  | Growth (%) CERCSO Use Ex. 7 ([1]; 125 ppm, Table 9): 90%; Growth (%) COLLLA Use Ex. 8 [7]: 43%; Growth (%) LEPTNO Use Ex. 9 [8]: 64%
13 | CO/C=C(/C(=O)OC)c1cccc(C)c1CO/N=C(\COC)c1cccc(F)c1 [1.2-A-75, reference compound] |  |  |  |  |  |  |  |  | Growth at 8 ppm (%) PYRNTE F129L Use ex. 10 [3]: 34%
14 | CO/C=C(/C(=O)OC)c1cccc(Cl)c1CO/N=C(\COC)c1c(F)cc(F)cc1F [compound 12, Methyl-(E)-2-[3-chloro-2-[[(Z)-[2-methoxy-1-(2,4,6-trifluorophenyl)ethylidene]amino]oxymethyl]phenyl]-3-methoxy-prop-2-enoate] | 2 | 0 | 17 | 9 | 4 | 0 | 23 | 18 | Growth (%) COLLLA Use Ex. 8 [7]: 20%
15 | CNC(=O)/C(=N/OC)c1cccc(C)c1CO/N=C(\COC)c1ccccc1 [reference compound] |  |  |  |  |  |  |  |  | Growth at 2 ppm (%) COLLLA Use ex. 8 [7]: 44%
16 | COC/C(=N\OCc1c(C)cccc1/C(=N\OC)C(=O)OC)c1ccc(F)cc1 [I.2-A-82, reference compound] |  |  |  |  |  |  |  |  | Growth at 125 ppm (%) LEPTNO Use ex. 9 [8]: 19%
17 | CO/C=C(/C(=O)OC)c1cccc(F)c1CO/N=C(\COC)c1ccc(F)cc1 [compound 17] | 8 | 0 | 37 | 8 | 17 | 2 | 53 | 6 | Growth at 125 ppm (%) LEPTNO Use ex. 9 [8]: 0%
18 | CNC(=O)/C(=N/OC)c1cccc(C)c1CO/N=C(\COC)c1c(F)cc(F)cc1F [I.3-A-43860, reference compound] |  |  |  |  |  |  |  |  | Growth (%) COLLLA Use ex. 8 [7]: 62%; Growth (%) PYRNTE F129L Use ex. 10 ([3]; Table 13): 36%
